Results reported in patent EP4692072A1, “PHOTOCHROMIC COMPOUND, PROPARGYL ALCOHOL COMPOUND, CURABLE COMPOSITION, OPTICAL ARTICLE, LENS, AND SPECTACLES” (TOKUYAMA CORPORATION, priority 2023, dated 2024).

How the values were obtained:
Type in all cases: physicochemical
[1] = Accelerated deterioration (xenon weather meter X25, 120 hours) of photochromic laminate prepared by coating method; details: 0.25 mmol per 100 g monomers, A120/A0×100 after 120 hours xenon weather meter
Description: (§1) First, the photochromic compound obtained in Example 1, a photoinitiator, and a polymerizable compound were mixed to obtain a curable composition.
(§2) Polyethylene glycol dimethacrylate (average molecular weight: 736): 42 parts by mass • Polyethylene glycol dimethacrylate (average molecular weight: 536): 12 parts by mass • Trimethylolpropane trimethacrylate: 38 parts by mass γ-methacryloyloxypropyl trimethoxysilane: 2 parts by mass Glycidyl methacrylate: 1 part by mass
(§3) Note that the photochromic compound was added to the curable composition so that the amount of the photochromic compound was 0.25 mmol based on 100 g of the total amount of the radical-polymerizable monomers.
(§4) Phenylbis(2,4,6-trimethylbenzoyl)phosphine oxide (photoinitiator: Omnirad 819): 0.3 parts by mass Ethylene bis(oxyethylene) bis[3-(5-tert-butyl-4-hydroxy-m-tolyl)propionate] (stabilizer, Irganox 245): 1 part by mass Bis(1,2,2,6,6-pentamethyl-4-piperidyl) sebacate: 3 parts by mass Leveling agent (L7001) manufactured by Dow Corning Toray Co.,Ltd.: 0.1 part by mass
(§5) First, a thiourethane-based plastic lens having a central thickness of 2 mm and a refractive index of 1.60 was prepared as the optical substrate. Note that this thiourethane-based plastic lens was pre-treated by alkaline etching with a 10% sodium hydroxide aqueous solution at 50°C for 5 minutes, followed by sufficient washing with distilled water.
(§6) A surface of the above-described plastic lens was coated with a moisture-curable primer (product name: TR-SC-P, manufactured by Tokuyama Corporation) at a rotation frequency of 70 rpm for 15 seconds, followed by 1000 rpm for 10 seconds, using a spin coater (1H-DX2, manufactured by MIKASA CO., LTD), Subsequently, about 2 g of the photochromic curable composition obtained above was spin-coated at a rotation frequency of 60 rpm for 40 seconds, followed by 600 rpm for 10 to 20 seconds, to form a photochromic coating layer with a film thickness of 40 µm.
(§7) The lens with the surface coated with the photochromic curable composition (photochromic coating layer) was irradiated with light using a metal halide lamp with an output power of 200 mW/cm^2 in a nitrogen gas atmosphere for 90 seconds to cure the coating film. Subsequently, the lens was further heated at 110°C for 1 hour to prepare a photochromic laminate having a photochromic layer.
(§8) • [1] Maximum Absorption Wavelength (λmax): The maximum absorption wavelength after color development, measured using a spectrophotometer (instantaneous multichannel photodetector MCPD3000) manufactured by Otsuka Electronics Co., Ltd. was used as an indicator for the color tone during the color development. • [2] 23°C Color Optical Density (A23): A difference between an absorbancy measured after light irradiation at 23°C for 300 seconds {ε(300)} and an absorbancy without light irradiation ε(0) at the maximum absorption wavelength was used as an indicator for the color optical density. […] 23°C color fading half-life [τ1/2 (sec.)]: A time required for the absorbancy of the sample at the maximum absorption wavelength to decrease to 1/2 of {ε(300)-ε(0)} when the light irradiation was terminated after the light irradiation at 23°C for 300 seconds, was used as an indicator for the color fading speed. The shorter this time, the higher the color fading speed. • [4] Residual rate (A120/A0×100): The obtained photochromic plastic lens was subjected to accelerated deterioration using a xenon weather meter X25 manufactured by Suga Test Instruments Co., Ltd. for 120 hours. Subsequently, the color optical density was evaluated before and after the test, then a color optical density before the test (A0) and a color optical density after the test (A120) were measured, and a ratio (A120/A0) was defined as a residual rate. The residual rate was used as an indicator for a color developing durability. The higher the residual rate, the higher the color developing durability. […]

[2] = Photochromic properties of photochromic cured product prepared by kneading method; details: 0.106 mmol per 100 g monomer
Procedure: (§9) • [1] Maximum Absorption Wavelength (λmax): The maximum absorption wavelength after color development, measured using a spectrophotometer (instantaneous multichannel photodetector MCPD3000) manufactured by Otsuka Electronics Co., Ltd. was used as an indicator for the color tone during the color development. • [2] 23°C Color Optical Density (A23): A difference between an absorbancy measured after light irradiation at 23°C for 300 seconds {ε(300)} and an absorbancy without light irradiation ε(0) at the maximum absorption wavelength was used as an indicator for the color optical density. […] 23°C color fading half-life [τ1/2 (sec.)]: A time required for the absorbancy of the sample at the maximum absorption wavelength to decrease to 1/2 of {ε(300)-ε(0)} when the light irradiation was terminated after the light irradiation at 23°C for 300 seconds, was used as an indicator for the color fading speed. The shorter this time, the higher the color fading speed. • [4] Residual rate (A120/A0×100): The obtained photochromic plastic lens was subjected to accelerated deterioration using a xenon weather meter X25 manufactured by Suga Test Instruments Co., Ltd. for 120 hours. Subsequently, the color optical density was evaluated before and after the test, then a color optical density before the test (A0) and a color optical density after the test (A120) were measured, and a ratio (A120/A0) was defined as a residual rate. The residual rate was used as an indicator for a color developing durability. The higher the residual rate, the higher the color developing durability. The results of Examples 26, 50, and Comparative Examples 1 to 8 are summarized in Table 1, and the results of Examples 27 to 49 are summarized in Tables 2 and 3.
(§10) First, the photochromic compound obtained in Example 1, additives, and a polymerizable compound were mixed to obtain a curable composition.
(§11) As the polymerizable compound, a combination of the following polymerizable monomers was used. • 1,3-bis(isocyanatomethyl)cyclohexane: 36.7 parts by mass Pentaerythritol tetrakis(3-mercaptopropionate): 39.4 parts by mass • Polyoxyethylene polyoxypropylene lauryl ether (Wonder Surf 140 manufactured by Aoki Oil Industrial Co., Ltd.): 17.4 parts by mass • 1-decanethiol: 2.8 parts by mass • RX-1 adjusted according to the method described in Patent Document 13: 3.8 parts by mass
(§12) Note that the photochromic compound was added to the curable composition so that the amount of the photochromic compound was 0.106 mmol based on 100 g of the total amount of the polymerizable monomer. The following additives were used: Dimethyltin dichloride • : 0.05 part by mass • Irganox 245: 0.1 part by mass • 2-ethylhexyl 4-methoxycinnamate: 0.6 part by mass
(§13) The prepared curable composition was thoroughly defoamed, then injected into a glass mold having a 1 mm gap, and polymerized by cast polymerization. The polymerization was carried out in an air furnace while gradually raising the temperature from 27°C to 120°C over 18 hours. After the polymerization, the cured product was removed from the glass mold to obtain a photochromic cured product having a thickness of 1 mm. The obtained photochromic cured product was evaluated in the same manner as in Example 26.
(§14) (Examples 85 to 99, and Comparative Example 14 to 18) Photochromic cured products were prepared using photochromic compounds presented in Tables 6 and 7 in the same manner as in Example 84. The results of Examples 84 and 85 and Comparative Examples 14 to 18 are summarized in Table 6, and the results of Examples 86 to 99 are summarized in Table 7.

[3] = Photochromic properties of photochromic laminate (plastic lens) prepared by coating method; details: 40 µm photochromic layer on thiourethane lens, 0.25 mmol compound per 100 g monomers, after color development
Description: as §1, §2, §3, §4, §5, §6, §7
In the same manner as in Example 26, photochromic laminates were prepared using the photochromic compounds obtained in Examples 2 to 25.
as §8, with “durability.” for “durability. The higher the residual rate, the higher the color developing durability.”

[4] = Accelerated deterioration (xenon weather meter X25, 120 hours) of photochromic cured product prepared by kneading method; details: 1 mm cured product, 0.106 mmol per 100 g monomer, A120/A0×100 after 120 hours xenon weather meter
Procedure: as §9, §10, §11, §12, §13, §14

Residual rate [1]: 67%
A23 ([2]; 1 mm cured product, 23°C color optical density ε(300)-ε(0)): 1.41 -
Maximum absorption wavelength ([2]; 1 mm thiourethane cured product, after color development): 526 nm
Maximum absorption wavelength [3]: 522 nm
Residual rate [4]: 72%
Structure (SMILES): CCC1(CC)CCC2(CC1)c1ccccc1-c1c2c2c(c3cc(OC)c(N(c4ccccc4)c4ccccc4)cc13)OC(c1ccc(C)cc1)(c1ccc(N(C)c3ccc(C)cc3)cc1)C=C2 (centres unmarked) [Example 2]
